{"source": "patent US20040086504A1", "about": "“Cyr61 as a target for treatment and diagnosis of breast cancer” (priority 2003, published 2004)", "key": {"[1]": {"tested_on": "Cyr61", "experiment": "Cyr61 mRNA/protein expression in MDA-MB-453 cells (Northern/Western blot)", "type": "cell-based, human", "conditions": "for effect on DHT induction of Cyr61: co-treatment with 1 nM DHT"}, "[2]": {"tested_on": "Cyr61", "experiment": "Cyr61 mRNA/protein expression in MCF-7 cells (Northern/Western blot)", "conditions": "for block of 17β-estradiol upregulation of Cyr61: co-treatment with 17β-estradiol"}, "[3]": {"tested_on": "Cyr61", "experiment": "Cyr61 mRNA expression in MDA-MB-231 cells (Northern blot)", "type": "cell-based, human", "conditions": "AR- MDA-MB-231 cells", "method": "(§1) Incubation and analysis were performed according to techniques described in Example 1.\n(§2) Total cellular RNA was isolated from cultured adenocarcinoma cells by guanidium isothiocynate lysis followed by phenol/chloroform extraction."}, "[4]": {"tested_on": "Cyr61", "experiment": "Cyr61 mRNA expression in ZR-75-1 cells (Northern blot)", "type": "cell-based, human", "method": "as §1, §2"}, "[5]": {"tested_on": "Cyr61", "experiment": "Cyr61 mRNA/protein expression in T47D cells (Northern/Western blot)"}}, "note": "Starred links: 1 amine or outer side, 2 acyl side, 3 side chain; linkers in the order of their positions; H or OH if unused. Positions of bridges follow the written chain, without caps; N, C: chain ends. Non-standard residues stand in square brackets, D forms with d. Residues, ends and D or L forms follow the SMILES beside them. Chains are numbered I, II in the order given. Actinocin(9to1) = Cc1c2oc3c(C)ccc(C(=O)[*:1])c3nc-2c(C(=O)[*:2])c(N)c1=O; NMeV = CN[C@H](C(=O)O)C(C)C; Sar = CNCC(=O)O"}
{"compound": "CC(C)(O)C(=O)Nc1ccc([N+](=O)[O-])c(C(F)(F)F)c1", "note": "[2-OH flutamide]", "values": [{"measurement": "effect on DHT induction of Cyr61", "setting": "[1]", "value": "completely abrogated"}]}
{"compound": "C[C@]12CC[C@@H]3c4ccc(O)cc4CC[C@H]3[C@@H]1CC[C@@H]2O", "note": "[17β-estradiol]", "values": [{"measurement": "upregulation of Cyr61 mRNA", "setting": "[2]", "value": "upregulation"}, {"measurement": "effects of EGF on mRNA transcription", "setting": "[2]; with EGF", "value": "stimulates"}]}
{"compound": "C[C@]12CCC(=O)C[C@@H]1CC[C@@H]1[C@@H]2CC[C@]2(C)[C@@H](O)CC[C@@H]12", "note": "[DHT]", "values": [{"measurement": "expression of Cyr61", "setting": "[3]", "value": "not enhanced"}, {"measurement": "maximum expression of Cyr61 mRNA and protein", "setting": "[1]", "value": 8, "unit": "fold"}, {"measurement": "time of maximum expression of Cyr61 mRNA and protein", "setting": "[1]", "value": "≤ 0.5", "unit": "h"}, {"measurement": "concentration of maximal expression of Cyr61 mRNA and protein", "setting": "[1]; dose-dependent", "value": 1.0, "unit": "nM"}, {"measurement": "EC50", "setting": "[1]; read-out: EC50 for upregulation of Cyr61 mRNA and protein", "value": "~0.3", "unit": "nM"}, {"measurement": "induction of Cyr61", "setting": "[4]", "value": "lack of induction"}]}
{"compound": "CCC(=O)[C@@]1(C)CC[C@H]2[C@@H]3CCC4=CC(=O)CCC4=C3CC[C@@]21C", "note": "[R5020]", "values": [{"measurement": "induction of Cyr61 mRNA transcription", "setting": "[5]", "value": "dose-dependent manner"}, {"measurement": "effects of EGF on mRNA transcription", "setting": "[5]; with EGF", "value": "stimulates"}]}
{"compound": "Cc1c2oc3c(C)ccc(C(=O)N[C@@H]4C(=O)N[C@H](C(C)C)C(=O)N5CCC[C@H]5C(=O)N(C)CC(=O)N(C)[C@@H](C(C)C)C(=O)O[C@@H]4C)c3nc-2c(C(=O)N[C@@H]2C(=O)N[C@H](C(C)C)C(=O)N3CCC[C@H]3C(=O)N(C)CC(=O)N(C)[C@@H](C(C)C)C(=O)O[C@@H]2C)c(N)c1=O", "note": "[actinomycin D] (I: T[dV]P[Sar][NMeV] / II: T[dV]P[Sar][NMeV]; ester I:1-I:C, II:1-II:C; linker I:N-II:N via Actinocin(9to1))", "values": [{"measurement": "block of 17β-estradiol upregulation of Cyr61", "setting": "[2]", "value": "fully blocked"}, {"measurement": "effect on DHT induction of Cyr61", "setting": "[1]", "value": "completely blocked"}, {"measurement": "block of R5020 upregulation of Cyr61", "setting": "[5]; co-treatment with R5020", "value": "fully blocked"}]}
{"compound": "C[C@@H]1C[C@@H]([C@H](O)CC2CC(=O)NC(=O)C2)C(=O)[C@@H](C)C1", "note": "[cycloheximide]", "values": [{"measurement": "block of 17β-estradiol upregulation of Cyr61", "setting": "[2]", "value": "not"}, {"measurement": "Cyr61 mRNA on co-treatment with DHT compared to DHT treatment alone", "setting": "[1]", "value": "significant overexpression"}, {"measurement": "effect on DHT induction of Cyr61", "setting": "[1]", "value": "not observed"}]}
{"compound": "EGF: epidermal growth factor (NSDSECPLSHDGYCLHDGVCMYIEALDKYACNCVVGYIGERCQYRDLKWWELR; UniProt P01133 971-1023, looked up)", "values": [{"measurement": "expression of Cyr61", "setting": "[3]", "value": "rapidly induced"}, {"measurement": "time to maximal levels of Cyr61 mRNA", "setting": "[4]", "value": "≤ 0.5", "unit": "h"}]}
